Here are results for two compounds from patent US20020086278A1, “CHROMOGENIC MEDIA CONTAINING BLOOD OR HEMIN” (priority 1999, published 2002).

Entries after “also recorded” stand apart in the source; their conditions may differ. Bounds are passed on as bounds.

The subject of experiment [1] is Group B Strep. 12386. Description: Example 1: growth and colony color on plates surface-spread with chromogen. In kind it is cell-based. Particulars: for Growth / Color: Group B Strep 12386.
Experiment [2] concerns S. pneumoniae 6303. Description: Example 2: effect of incubation conditions on colony color formation. The experiment is classed as cell-based, Streptococcus pneumoniae. Particulars: TSA II 5% Sheep Blood, 0.004 g/plate; 24 h, CO2.
The subject of experiment [3] is Klebsiella pneumoniae (klpn). The experiment can be described thus: Example 3: colony color on chromogenic TSA II with 5% sheep blood (chromogen in medium). The experiment is classed as cell-based. Particulars: for Colony Color (Summary): chromogenic TSA II with 5% Sheep Blood, 0.1 g/l, 3 strains tested; for Colony Color: CO2.
The test system of experiment [4] is 55 strains. The experiment can be described thus: Example 3: color, hemolytic activity and growth over all 55 strains. The experiment is classed as cell-based. The note with it: Gram-positives. The text has this:
Steers, E. et al., Antibiot.

Experiment [5] relates to C. perfringens 13124. In kind it is cell-based, Clostridium perfringens. Particulars: TSA II 5% Sheep Blood, 0.004 g/plate; 5 d, ANA.
Experiment [6] concerns Aeromonas hydrophilia (aehy). The experiment can be described thus: Example 3: colony color on chromogenic TSA II with 5% sheep blood (chromogen in medium). In kind it is cell-based. The note with it: for Colony Color: CO2; for Colony Color (Summary): chromogenic TSA II with 5% Sheep Blood, 0.1 g/l, 3 strains tested.
Experiment [7] has as its system cakr 34135. Described as above. The experiment is classed as cell-based.
Experiment [8] concerns Strep Grp G 12394. Description: Example 2: effect of incubation conditions on colony color formation. In kind it is cell-based, Streptococcus group G. Particulars: 0.004 g/plate, 24 h, CO2.
The test system of experiment [9] is S. agalactiae 6638. The experiment is described as above. In kind it is cell-based, Streptococcus agalactiae. Particulars: 0.004 g/plate, 24 h, CO2.
For experiment [10], the system named is S. agalactiae BD747. The experiment is described as above. In kind it is cell-based, Streptococcus agalactiae. Particulars: 0.004 g/plate, 24 h, CO2.
Experiment [11] has as its system S. agalactiae BD11586. Described as above. The experiment is classed as cell-based, Streptococcus agalactiae. The note with it: Chocolate II Agar, 0.004 g/plate; 24 h, CO2.
Experiment [12] has as its system Strep Grp C 12388. Described as above. In kind it is cell-based, Streptococcus group C. Particulars: 0.004 g/plate, 24 h, CO2.
Experiment [13] deals with S. agalactiae 4768. The description is as above. In kind it is cell-based, Streptococcus agalactiae. The note with it: 0.004 g/plate, 24 h, CO2.
Experiment [14] concerns Strep Grp G 27961. The description is as above. In kind it is cell-based, Streptococcus group G. Particulars: 0.004 g/plate, 24 h, CO2.
Experiment [15] deals with S. agalactiae 13813. Described as above. The note with it: 0.004 g/plate, 24 h, CO2. In kind it is cell-based, Streptococcus agalactiae.
Where [16] appears, read: Summary of Table I, Group B Strep. 12386.

On to `OC[C@H]1O[C@@H](Oc2c[nH]c3ccc(Br)c(Cl)c23)[C@H](O)[C@@H](O)[C@H]1O` [X-Gal, 5-Br-4-Cl-3-indolyl-β-D-galactopyranoside], for which the “Substrates Producing Growth Inhibition” value in experiment [1] (setting [16]) was “Slight inhib. w/ X-”. Besides, the Growth result in experiment [1] (TSA II 5SB) and in experiment [1] (TSA Plain) was “<” each time. Also, the Colony Color entry in [2] is listed as “blue (l)”; in experiment [3] (klpn 13883, 21 h), “gb”; in [3] (klpn 33606, 21 h), “gb”; in [5] it was “blue (m)”; in experiment [6] (aehy 7965, 21 h) it was “gb”; in experiment [6] (aehy 7966, 21 h), “gb”. Also, the “Colony Color” value in [6] (aehy 49847, 21 h) is “gb”; in experiment [7] (CO2, 21 h), 0. For the same compound, the figures for the “Colony Color (Summary)” value in [3] and in experiment [6] were “+” and 0, respectively. For the same compound, the “Usefulness for Gram-positives” value in experiment [4] is “not particularly useful”.

Consider `O=C(O)[C@H]1O[C@@H](Oc2c[nH]c3ccc(Br)c(Cl)c23)[C@H](O)[C@@H](O)[C@@H]1O` [X-Glucuro, X-Glucuronide], for which the Colony Color result in experiment [8] (Chocolate II Agar) is “blue (d)”; in experiment [8] (TSA II 5% Sheep Blood) it was “grey blue”; in experiment [9] (Chocolate II Agar), “blue (m)”; in experiment [9] (TSA II 5% Sheep Blood), “blue (m)”; in [10] (Chocolate II Agar), “blue (l)”; in experiment [10] (TSA II 5% Sheep Blood), “grey blue”. In addition, the “Colony Color” value was 0 in [3] (klpn 13883, 18 h); 0 in experiment [3] (klpn 33495, 18 h); 0 in experiment [3] (klpn 33606, 18 h); “blue (vl)” in experiment [11]; “blue (d)” in [12] (Chocolate II Agar); “blue (d)” in [12] (TSA II 5% Sheep Blood). Further, the Colony Color entry in experiment [13] (Chocolate II Agar) is “blue (l)”; in experiment [13] (TSA II 5% Sheep Blood) it was “blue (l)”; in [6] (aehy 7965, 18 h), 0; in [6] (aehy 7966, 18 h), 0; in experiment [6] (aehy 49847, 18 h), 0; in experiment [7] (CO2, 18 h), 0. Also, the Colony Color result in [14] (Chocolate II Agar), in experiment [14] (TSA II 5% Sheep Blood), in experiment [15] (Chocolate II Agar) and in experiment [15] (TSA II 5% Sheep Blood) was “blue (d)” each time. Further, the Color result in experiment [1] (Choc II) is “blue”; in [1] (TSA II 5SB) it was “blue with beta hemolysis; also recorded: blue (a)”; in [1] (TSA Plain), “blue”. For the same compound, in experiment [1] (setting [16]), the “Substrates Producing Color” value was “Glucuro”. The “Colony Color (Summary)” value in experiment [3] and in experiment [6] was 0 in each case.
